Results published in patent US11970494B2, “6-heteroaryloxy benzimidazoles and azabenzimidazoles as JAK2 inhibitors” (Ajax Therapeutics, Inc., priority 2021, dated 2024).
pKd: −log10 of the molar value.

target: T1, JAK2 (JH1 domain-catalytic, Y1007F,Y1008F) kinase (Homo sapiens, UniProt O60674, Y1007F/Y1008F); assay: JAK2 Binding Assay (JAK2 JH1 Domain Binding Assay); conditions: not given
T1 construct: made in house; host or cells: transiently transfected HEK293 cells
T1 sequence (O60674 849-1124 Y1007F/Y1008F limits assumed): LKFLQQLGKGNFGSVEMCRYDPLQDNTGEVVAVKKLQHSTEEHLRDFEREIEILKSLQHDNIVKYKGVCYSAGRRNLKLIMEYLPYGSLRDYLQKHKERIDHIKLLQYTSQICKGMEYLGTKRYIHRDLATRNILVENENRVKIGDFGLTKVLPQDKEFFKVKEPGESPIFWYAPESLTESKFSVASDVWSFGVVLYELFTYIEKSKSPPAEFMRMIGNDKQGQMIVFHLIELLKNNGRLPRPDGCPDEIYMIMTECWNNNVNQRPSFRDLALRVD

`Cn1cc(C(F)(F)F)cc(Nc2nc3ncc(Oc4ccnc(NC(=O)CF)c4)c(Cl)c3n2C)c1=O` [Example I-76, N-(4-((7-chloro-1-methyl-2-((1-methyl-2-oxo-5-(trifluoromethyl)-1,2-dihydropyridin-3-yl)amino)-1H-imidazo[4,5-b]pyridin-6-yl)oxy)pyridin-2-yl)-2-fluoroacetamide] and `Cn1cc(C(F)(F)F)cc(Nc2nc3ncc(Oc4ccnc(NC(=O)CF)c4)c(C#N)c3n2C)c1=O` [Example I-84, N-(4-((7-cyano-1-methyl-2-((1-methyl-2-oxo-5-(trifluoromethyl)-1,2-dihydropyridin-3-yl)amino)-1H-imidazo[4,5-b]pyridin-6-yl)oxy)pyridin-2-yl)-2-fluoroacetamide] cannot be ordered by pKd: greater than 8.00 for the first, greater than 8.00 for the second.

same assay, conditions: JAK2 JH1 domain binding, qPCR detection; read-out: JAK2 Kd

`Cn1c(Nc2cc3n(n2)CCOC3(C)C)nc2ncc(Oc3ccnc(NC(=O)N4CCC4)c3)c(C#N)c21` [Example I-47, N-(4-((7-cyano-2-((4,4-dimethyl-6,7-dihydro-4H-pyrazolo[5,1-c][1,4]oxazin-2-yl)amino)-1-methyl-1H-imidazo[4,5-b]pyridin-6-yl)oxy)pyridin-2-yl)azetidine-1-carboxamide] and `Cn1c(Nc2cc3n(n2)CCOC3(C)C)nc2ncc(Oc3ccnc(NC(=O)O[C@H]4CCOC4)c3)c(C#N)c21` [Example I-49, (S)-Tetrahydrofuran-3-yl(4-((7-cyano-2-((4,4-dimethyl-6,7-dihydro-4H-pyrazolo[5,1-c][1,4]oxazin-2-yl)amino)-1-methyl-1H-imidazo[4,5-b]pyridin-6-yl)oxy)pyridin-2-yl)carbamate] cannot be ordered by pKd: greater than 8.00 for the first, greater than 8.00 for the second.

`[2H]C([2H])([2H])N(C(=O)Nc1cc(Oc2cnc3nc(Nc4cc(C(F)(F)F)cn(C)c4=O)n(C)c3c2C#N)ccn1)C([2H])([2H])[2H]` [Example I-52, 3-(4-((7-cyano-1-methyl-2-((1-methyl-2-oxo-5-(trifluoromethyl)-1,2-dihydropyridin-3-yl)amino)-1H-imidazo[4,5-b]pyridin-6-yl)oxy)pyridin-2-yl)-1,1-bis(methyl-d3)urea] and `[2H]C([2H])([2H])n1cc(C(F)(F)F)cc(Nc2nc3ncc(Oc4ccnc(NC(C)=O)c4)c(C#N)c3n2C)c1=O` [Example I-83, N-(4-((7-cyano-1-methyl-2-((1-(methyl-d3)-2-oxo-5-(trifluoromethyl)-1,2-dihydropyridin-3-yl)amino)-1H-imidazo[4,5-b]pyridin-6-yl)oxy)pyridin-2-yl)acetamide] cannot be ordered by pKd: greater than 8.00 for the first, greater than 8.00 for the second.

First: CN1CCn2nc(Nc3nc4ncc(Oc5ccnc(NC(=O)O[C@@H]6CCOC6)c5)c(Cl)c4n3C)cc2C1=O [Example I-53, (R)-tetrahydrofuran-3-yl(4-((7-chloro-1-methyl-2-((5-methyl-4-oxo-4,5,6,7-tetrahydropyrazolo[1,5-a]pyrazin-2-yl)amino)-1H-imidazo[4,5-b]pyridin-6-yl)oxy)pyridin-2-yl)carbamate]
Second: CN1CCn2nc(Nc3nc4ncc(Oc5ccnc(NC(=O)O[C@H]6CCOC6)c5)c(Cl)c4n3C)cc2C1=O [Example I-55, (S)-tetrahydrofuran-3-yl(4-((7-chloro-1-methyl-2-((5-methyl-4-oxo-4,5,6,7-tetrahydropyrazolo[1,5-a]pyrazin-2-yl)amino)-1H-imidazo[4,5-b]pyridin-6-yl)oxy)pyridinyl)carbamate]
The pKd of the first is lower: less than 5.30 for the first, 5.30 to 6.00 for the second.

Compared with `CN1CCn2nc(Nc3nc4ncc(Oc5ccnc(NC(=O)OC6COC6)c5)c(Cl)c4n3C)cc2C1=O` [Example I-54, oxetan-3-yl(4-((7-chloro-1-methyl-2-((5-methyl-4-oxo-4,5,6,7-tetrahydropyrazolo[1,5-a]pyrazin-2-yl)amino)-1H-imidazo[4,5-b]pyridin-6-yl)oxy)pyridin-2-yl)carbamate], `Cn1c(Nc2cc3n(n2)CCC32CCC2)nc2ncc(Oc3ccnc(NC(=O)OC4COC4)c3)c(C#N)c21` [Example I-66, oxetan-3-yl (4-((7-cyano-2-((5′,6′-dihydrospiro[cyclobutane-1,4′-pyrrolo[1,2-b]pyrazol]-2′-yl)amino)-1-methyl-1H-imidazo[4,5-b]pyridin-6-yl)oxy)pyridin-2-yl)carbamate] is higher in pKd: 5.30 to 6.00 for the first, greater than 8.00 for the second. The second binds more tightly here.

`CNC(=O)Nc1cc(Oc2cnc3nc(Nc4cc5n(n4)CCC54CCC4)n(C)c3c2C#N)ccn1` [Example I-58, 1-(4-((7-cyano-2-((5′,6′-dihydrospiro[cyclobutane-1,4′-pyrrolo[1,2-b]pyrazol]-2′-yl)amino)-1-methyl-1H-imidazo[4,5-b]pyridin-6-yl)oxy)pyridin-2-yl)-3-methylurea] and `CNC(=O)Nc1cc(Oc2cnc3nc(Nc4cc5n(n4)CCCC54CC4)n(C)c3c2C#N)ccn1` [Example I-64, 1-(4-((7-cyano-2-((6′,7′-dihydro-5′H-spiro[cyclopropane-1,4′-pyrazolo[1,5-a]pyridin]-2′-yl)amino)-1-methyl-1H-imidazo[4,5-b]pyridin-6-yl)oxy)pyridin-2-yl)-3-methylurea] cannot be ordered by pKd: greater than 8.00 for the first, greater than 8.00 for the second.

`CO[C@H]1CCN(C(=O)Nc2cc(Oc3cnc4nc(Nc5cc6n(n5)CCC65CCC5)n(C)c4c3C#N)ccn2)C1` [Example I-59, (S)-N-(4-((7-cyano-2-((5′,6′-dihydrospiro[cyclobutane-1,4′-pyrrolo[1,2-b]pyrazol]-2′-yl)amino)-1-methyl-1H-imidazo[4,5-b]pyridin-6-yl)oxy)pyridin-2-yl)-3-methoxypyrrolidine-1-carboxamide] and `COC(=O)Nc1cc(Oc2cnc3nc(Nc4cc5n(n4)CCCC54CC4)n(C)c3c2C#N)ccn1` [Example I-63, methyl (4-((7-cyano-2-((6′,7′-dihydro-5′H-spiro[cyclopropane-1,4′-pyrazolo[1,5-a]pyridin]-2′-yl)amino)-1-methyl-1H-imidazo[4,5-b]pyridin-6-yl)oxy)pyridin-2-yl)carbamate] cannot be ordered by pKd: greater than 8.00 for the first, greater than 8.00 for the second.

`CN(C)C(=O)Nc1cc(Oc2cnc3nc(Nc4cc5n(n4)CCCC54CC4)n(C)c3c2C#N)ccn1` [Example I-65, 3-(4-((7-cyano-2-((6′,7′-dihydro-5′H-spiro[cyclopropane-1,4′-pyrazolo[1,5-a]pyridin]-2′-yl)amino)-1-methyl-1H-imidazo[4,5-b]pyridin-6-yl)oxy)pyridin-2-yl)-1,1-dimethylurea] and `CN(C)C(=O)Nc1cc(Oc2cnc3nc(Nc4cc5n(n4)CCOCC5(C)C)n(C)c3c2C#N)ccn1` [Example I-67, 3-(4-((7-cyano-2-((4,4-dimethyl-4,5,7,8-tetrahydropyrazolo[1,5-d][1,4]oxazepinyl)amino)-1-methyl-1H-imidazo[4,5-b]pyridin-6-yl)oxy)pyridin-2-yl)-1,1-dimethylurea] cannot be ordered by pKd: greater than 8.00 for the first, greater than 8.00 for the second.

`COC(=O)Nc1cc(Oc2cnc3nc(Nc4cc5n(n4)CCOCC5(C)C)n(C)c3c2C#N)ccn1` [Example I-68, methyl(4-((7-cyano-2-((4,4-dimethyl-4,5,7,8-tetrahydropyrazolo[1,5-d][1,4]oxazepin-2-yl)amino)-1-methyl-1H-imidazo[4,5-b]pyridin-6-yl)oxy)pyridin-2-yl)carbamate] and `CNC(=O)Nc1cc(Oc2cnc3nc(Nc4cc5n(n4)CCOCC5(C)C)n(C)c3c2C#N)ccn1` [Example I-69, 1-(4-((7-cyano-2-((4,4-dimethyl-4,5,7,8-tetrahydropyrazolo[1,5-d][1,4]oxazepin-2-yl)amino)-1-methyl-1H-imidazo[4,5-b]pyridin-6-yl)oxy)pyridin-2-yl)-3-methylurea] cannot be ordered by pKd: greater than 8.00 for the first, greater than 8.00 for the second.

Compared with `CN(C)C(=O)Nc1cc(Oc2cnc3nc(Nc4cc5n(n4)CCN5C(C)(C)C)n(C)c3c2C#N)ccn1` [Example I-70, 3-(4-((2-((1-(tert-butyl)-2,3-dihydro-1H-imidazo[1,2-b]pyrazol-6-yl)amino)-7-cyano-1-methyl-1H-imidazo[4,5-b]pyridin-6-yl)oxy)pyridin-2-yl)-1,1-dimethylurea], `COC(=O)Nc1cc(Oc2cnc3nc(Nc4cc5n(n4)CCN5C(C)(C)C)n(C)c3c2C#N)ccn1` [Example I-71, methyl(4-((2-((1-(tert-butyl)-2,3-dihydro-1H-imidazo[1,2-b]pyrazol-6-yl)amino)-7-cyano-1-methyl-1H-imidazo[4,5-b]pyridin-6-yl)oxy)pyridin-2-yl)carbamate] is higher in pKd: 7.30 to 8.00 for the first, greater than 8.00 for the second.

First: CNC(=O)Nc1cc(Oc2cnc3nc(Nc4cc5n(n4)CCN5C(C)(C)C)n(C)c3c2C#N)ccn1 [Example I-72, 1-(4-((2-((1-(tert-butyl)-2,3-dihydro-1H-imidazo[1,2-b]pyrazol-6-yl)amino)-7-cyano-1-methyl-1H-imidazo[4,5-b]pyridin-6-yl)oxy)pyridin-2-yl)-3-methylurea]
Second: CN(C)C(=O)Nc1cc(Oc2cnc3nc(Nc4cc5n(n4)CC(C)(C)OC5)n(C)c3c2C#N)ccn1 [Example I-73, 3-(4-((7-cyano-2-((6,6-dimethyl-6,7-dihydro-4H-pyrazolo[5,1-c][1,4]oxazin-2-yl)amino)-1-methyl-1H-imidazo[4,5-b]pyridin-6-yl)oxy)pyridin-2-yl)-1,1-dimethylurea]
The pKd of the first is higher: greater than 8.00 for the first, 7.30 to 8.00 for the second. The first binds more tightly here.

`Cn1cc(C(F)(F)F)cc(Nc2nc3ncc(Oc4ccnc(NC(=O)C[C@H]5CCCCO5)c4)c(C#N)c3n2C)c1=O` [Example I-74-b] and `CC(=O)Nc1cc(Oc2cnc3nc(Nc4cc(C(F)(F)F)cn(CCO)c4=O)n(C)c3c2C#N)ccn1` [Example I-81] cannot be ordered by pKd: greater than 8.00 for the first, greater than 8.00 for the second.

`CC(=O)Nc1cc(Oc2cnc3nc(Nc4cc(C(F)(F)F)cn(C)c4=O)n(C)c3c2)ccn1` [Example I-77, N-(4-((1-methyl-2-((1-methyl-2-oxo-5-(trifluoromethyl)-1,2-dihydropyridin-3-yl)amino)-1H-imidazo[4,5-b]pyridin-6-yl)oxy)pyridin-2-yl)acetamide] and `[2H]C([2H])([2H])n1cc(C(F)(F)F)cc(Nc2nc3ncc(Oc4ccnc(NC(C)=O)c4)c(Cl)c3n2C)c1=O` [Example I-82, N-(4-((7-chloro-1-methyl-2-((1-(methyl-d3)-2-oxo-5-(trifluoromethyl)-1,2-dihydropyridin-3-yl)amino)-1H-imidazo[4,5-b]pyridin-6-yl)oxy)pyridin-2-yl)acetamide] cannot be ordered by pKd: greater than 8.00 for the first, greater than 8.00 for the second.

Work on `COc1c(Oc2ccnc(NC(C)=O)c2)cnc2nc(Nc3cc(C(F)(F)F)cn(CCO)c3=O)n(C)c12` [Example I-80, N-(4-((2-((1-(2-hydroxyethyl)-2-oxo-5-(trifluoromethyl)-1,2-dihydropyridin-3-yl)amino)-7-methoxy-1-methyl-1H-imidazo[4,5-b]pyridin-6-yl)oxy)pyridin-2-yl)acetamide] yielded a pKd greater than 8.00.
